Read-outs that look alike come from different tables or passages of the source.
Tests used:
[1] = test system: L. infantum amastigotes; test: Antiamastigote assay (L. infantum), ex vivo intracellular model of mice macrophages, microscopy; type: cell-based, Leishmania (L.) infantum; details: ± SD, intracellular, peritoneal macrophages, 96 h, read-out: L. infantum IC50 amastigotes
Procedure: (§1) Table 1 depicts the antileishmanial (L. infantum) activity evaluation performed against both the amastigote form (evaluated microscopically using an ex vivo intracellular model of mice macrophages) and the promastigote one (using an MTT colorimetric method).[32],[33] The cytotoxicity was evaluated against NCTC cells using an MTT colorimetric method and the selectivity index was determined using the ratio between the CC50 values (NCTC cells) and the IC50 values (amastigotes).[32] […] With respect to the substituents on the C ring, larger, hydrophobic groups conferred greater bioactivity (e.g., 9b–d), whereas small, hydrophilic groups such as a hydroxyl group afford modest to poor bioactivity.
(§2) Leishmania (L.) infantum (MHOM/BR/1972/LD) amastigotes were obtained from golden hamsters (Mesocricetus auratus) spleens following 60-70 days of infection via differential centrifugation. The Stauber method was used to determine the number of parasites.12 […]
(§3) Peritoneal macrophages were obtained via washing the peritoneal cavity of BALB/c mice with 10% foetal calf serum supplemented RPMI-1640 medium (pH 7.2). The macrophages were maintained in a humidified incubator at 37 °C and with 5% CO2.
(§4) Biological activity assays […]
Antiamastigote Assay (L. infantum)
Peritoneal macrophages (1 × 10^5/well) were added to a 16-well slide chambers (NUNC) and incubated with 5% CO2 at 37 °C. The cells were subsequently infected with L. infantum amastigotes (10:1 amastigotes/macrophage) for 24 h. Treatment of the cells with selected compounds (serially diluted 1.2 to 150 μM) was performed in a humidified incubator for 96 h at 37 °C and with 5% CO2. Untreated cells were used as a negative control and miltefosine was used as a standard drug. The treated cells were fixed on slides with methanol, stained with Giemsa and observed under a light microscope.13 The infection index was used in order to determine the half inhibitory concentration (IC50) (no. infected macrophages × no. amastigotes / total no. […]

[2] = test system: L. infantum promastigotes; test: Antipromastigote assay (L. infantum), MTT colorimetric; type: cell-based, Leishmania (L.) infantum; details: ± SD, MTT, 48 h, read-out: L. infantum IC50 promastigotes
Procedure: as §1, §2
Biological activity assays
Antipromastigote Assay (L. infantum)
L. infantum promastigotes (1 × 10^6 cells/well) were added to a 96-well plates. Treatment of the cells with selected compounds (serially diluted 0.14 to 200 μM) was performed in M199 medium supplemented with 0.25% hemin and 10% fetal bovine serum for 48 h at 24 °C. The MTT colorimetric assay was used to determine the activity (IC50) of the compounds. Miltefosine was used as a standard drug and untreated promastigotes were used as a negative control. The half inhibitory concentration (IC50) was determined from a sigmoidal regression of the concentration-response curves generated in GraphPadPrism7. […]

[3] = test system: NCTC cells; test: Mammalian toxicity, MTT colorimetric; type: cell-based, murine
Procedure: as §1, with “bioactivity. […]” for “bioactivity.”
(§5) Murine conjunctive fibroblasts NCTC clone 929 (ATCC) were maintained in 10% foetal calf serum supplemented RPMI-1640 medium (pH 7.2) at 37 °C in a humidified incubator with 5% CO2. […]
as §4
(§6) NCTC cells (6 × 10^4/well) were added to a 96-well plate. Treatments of the cells with selected compounds (serially diluted 1.5 to 200 μM) was performed in a humidified incubator for 96 h at 37 °C and with 5% CO2.
(§7) The MTT colorimetric method was used to determine the 50% cytotoxic concentration (CC50) and the selectivity index (CC50 against NCTC cells/IC50 against amastigotes).15 […]
(§8) […] At 6 h and 24 h post-treatment, a 1 mL aliquot was taken for imaging. The cell cycle experiment was preformed twice independently.
(§9) Generation of mNG::RAD51 tagged cell line
(§10) The single-stranded DNA-binding protein RAD51, associated with DNA Repair, LmxM.28.0550 was tagged with endogenous fluorescent protein mNeonGreen (mNG) at the N-terminus. […]
(§11) Primers for constructs and sgRNA were designed using LeishGEdit (http://www.leishGEdit.net).
(§12) PCR was at 94 °C for 5 min, followed by 35 cycles at 94 °C (15 sec), 65 °C (15 sec), 72 °C (2 min) then finally 72 °C (1 min).
(§13) PCR was at 94 °C for 30 sec, followed by 30 cycles at 94 °C (30 sec), 60 °C (30 sec), 72 °C (30 sec) then finally 72 °C (2 min). […] Combined PCR products were precipitated for 20 min with 10 μL 3M sodium acetate and 300 μL EtOH, pelleted at 14000 min-1 30 min, washed once with 70% EtOH, re-pelleted and resuspended in […]
(§14) Promastigotes (1 × 10^7 cells) were combined with PCR products and transfected using the Amaxa Nucleofector II.17 Electroporation was performed using 2 mm cuvettes on the X-100 program, followed by immediate suspension in pre-warmed M199 medium. Successful transfectants were selected with 20 μg mL-1 Puromycin 15 h after transfection, taking 4 days to reach stable growth in culture. mNG::RAD51 nuclear foci studies mNG::RAD51 promastigotes (5 × 10^6 cells mL-1) in 7 mL of M199 medium were treated with 7 μL o f compound (S)-9a or (S)-9b dissolved in DMSO giving a final concentration of 50 μM. Phleomycin was used as a positive control at a final concentration of 25 μg mL-1. At T = 0, 15, 30, 60 min, and 2, 6, 24 h post-treatment a 0.8 mL aliquot was taken for imaging.

[4] = test system: T. cruzi amastigotes; test: Antiamastigote assay (T. cruzi), ex vivo intracellular model using mice macrophages, microscopy; type: cell-based, Trypanosoma (T.) cruzi; details: ± SD, 48 h, read-out: T. cruzi IC50 amastigotes
Procedure: (§15) T. cruzi also assumes several cell morphologies during its lifecycle, which differ between the insect vector and mammalian host. In the latter environment, the parasite transitions between extracellular bloodstream trypomastigotes and intracellular amastigotes; both forms are clinically relevant, particularly during the acute stage of Chagas disease.[34] In this work, antitrypanosomal activity was tested against both the amastigote form (evaluated microscopically using an ex vivo intracellular model using mice macrophages) and the trypomastigote form (using the resazurin in vitro assay).[33],[35] […] In silico predictions of pharmacokinetic profiles were carried out using the SwissADME webtool (see the Supporting Information for details).[36] […]
(§16) […] Cultivation was performed in 2% fetal calf serum supplemented RPMI-1640 medium.
(§17) The trypomastigotes were maintained in a humidified incubator at 37 °C and with 5% CO2. […]
as §3, §4
Peritoneal macrophages (1 × 10^5 cells/well) obtained from the peritoneal cavity of BALB/C mice were added to 16-well chambers (NUNC, Thermo Fischer Scientific). The cells were infected with trypomastigotes (10:1 parasites/macrophage) for 2 h. Then treatment of the infected macrophages with selected compounds (serially diluted 1.2 to 100 μM) was performed in a humidified incubator for 48 h at 37 °C and with 5% CO2. The treated cells were fixed on slides using methanol, stained with Giemsa and observed under a light microscope (EVOS M5000, Thermo, USA) with digital image equipment. The infection index was used in order to determine the half inhibitory concentration (IC50) (no. infected macrophages × no. amastigotes / total no.

[5] = test system: T. cruzi trypomastigotes; test: Antitrypomastigote assay (T. cruzi), resazurin; type: cell-based, Trypanosoma (T.) cruzi; details: ± SD, resazurin, 24 h, read-out: T. cruzi IC50 trypomastigotes
Procedure: as §15, §16, §17, §4
The half inhibitory concentration (IC50) was determined from a sigmoidal regression of the concentration-response curves generated in GraphPadPrism7. […]
Treatment of the cells with selected compounds (serially diluted 1.2 to 150 μM) was performed in a humidified incubator in RPMI 1640 medium for 24 h at 37 °C and with 5% CO2. Resazurin (0.011% in PBS) was added subsequently to verify parasite viability. Benznidazole was used as a standard drug. The optical density was determined at 570 nm using the FilterMax F5 (Molecular Devices). […]

[6] = test system: mNG::RAD51 promastigotes; test: mNG::RAD51 nuclear foci studies; type: cell-based, Leishmania (L.) mexicana; details: 25 μg mL-1, from 2 h posttreatment
From the text: DSBs often lead to cytotoxicity, which could be an explanation for the observed compound activity.[44]−[46]Leishmania employ the RAD51 DNA recombinase protein as part of its DNA repair machinery to fix naturally occurring nuclear DSBs via homologous recombination.[47]−[50] Using a CRISPR/Cas9 gene editing strategy,[51] we generated a genetically modified cell line with mNeonGreen tagged RAD51. This would allow observation of fluorescent RAD51 protein recruitment to foci in the nucleus corresponding to DSB accumulation, as has been shown in T. brucei.[52],[53] Phleomycin was used as a positive control to induce DSBs,[54] which led to the expected observation of accumulation of RAD51 as green dots in the nucleus in 80% of cells from as early as 2 h posttreatment (Figure 2D). […] We can therefore conclude that the BI compounds tested are unlikely to act via DSBs (albeit this methodology is sensitive only to DSBs in nuclear DNA), and another mechanism of cell cycle disruption is responsible for the breakdown in the healthy cell cycle.
as §6, §7
[…] […] Statistical significance was derived from a two-tailed T-test.
The Graph Pad Prism 5 software was used to perform sigmoid dose-response curves for the determination of […]
as §8, §9, §10
Primers for constructs and sgRNA were designed using LeishGEdit (http://www.leishGEdit.net). […]

[7] = test system: L. donovani promastigotes; parameters: method as in PMID 26625837, PMID 12203262, PMID 3253497, PMID 25629555, PMID 3075676; details: reported antiparasitic activity; cited from earlier work
[8] = Mammalian toxicity, MTT colorimetric; type: cell-based, murine; details: mouse
Procedure: as §1, with “bioactivity. […]” for “bioactivity.”
as §5, §4, §6, §7, §8, §9, §10, §11, §12, §13, §14

[9] = test system: T. cruzi epimastigotes; parameters: method as in PMID 26625837, PMID 12203262, PMID 3253497, PMID 25629555, PMID 3075676; details: reported antiparasitic activity; cited from earlier work
[10] = Leishmania infantum, Peritoneal macrophage
[11] = Trypanosoma cruzi, Peritoneal macrophage

| Compound | IC50 [1, 10] [µM] | IC50 ([2]; Leishmania infantum) [µM] | IC50 [4, 11] [µM] | IC50 ([5]; Trypanosoma cruzi) [µM] | CC50 at 96 h [8] [µM] | further results |
| --- | --- | --- | --- | --- | --- | --- |
| COc1ccc(COc2ccc(C[C@@H]3c4cc(OC)c(OC)cc4CCN3C)cc2)cc1 [(R)-10c] |  |  |  |  |  | IC50 [1]: 9.3 ± 0.4 µM; IC50 [2]: 2.4 ± 0.9 µM; CC50 [3]: 28.1 ± 5.5 µM; IC50 ([4]; peritoneal macrophages): > 100 µM; IC50 [5]: 25.3 ± 2.1 µM |
| COc1ccc(COc2ccc(C[C@H]3c4cc(OC)c(OC)cc4CCN3C)cc2)cc1 [(S)-10c] |  |  |  |  |  | IC50 [1]: > 150 µM; IC50 [2]: 4.8 ± 0.2 µM; CC50 [3]: 5.8 ± 0.5 µM; IC50 ([4]; peritoneal macrophages): > 100 µM; IC50 [5]: 20.4 ± 11.4 µM |
| Phleomycin [reference compound] |  |  |  |  |  | cells with accumulation of RAD51 in the nucleus [6]: 80% |
| COc1ccc2cc1Oc1ccc(cc1)C[C@H]1c3cc(OC)c(OC)c(c3CCN1C)Oc1c(O)c(OC)cc3c1[C@H](C2)NCC3 [compound 2, northalrugosidine] |  |  |  |  |  | IC50 [7]: 0.28 µM |
| COc1cc2c(cc1OC)[C@@H](Cc1ccc(Br)cc1)N(C)CC2 [(R)-9a] | 23.4 ± 3.4 | 15.5 ± 5.8 | 31.8 ± 4.3 | 28.3 ± 11.7 | 86.8 ± 2.9 |  |
| COc1cc2c(cc1OC)[C@@H](Cc1ccc(OCc3ccccc3)cc1)N(C)CC2 [(R)-9d] | < 10 | 1.1 ± 0.5 | 6.2 ± 5.9 | 16.5 ± 6.1 | 28.1 ± 0.5 | IC50 [1]: 9.4 ± 0.5 µM |
| COc1ccc(COc2ccc(C[C@@H]3c4cc(OC)c(OC)cc4CCN3C)cc2Br)cc1 [(R)-9c] | > 150 | 3.5 ± 1.2 | > 100 | < 10 | 13.4 ± 1.3 | IC50 [5]: 8.5 ± 3.1 µM |
| COc1cc2c(cc1OC)[C@@H](Cc1ccc(Oc3cc(C[C@H]4c5cc(OC)c(OC)cc5CCN4C)ccc3O)cc1)N(C)CC2 [(R,S)-13] | > 150 | 3.2 ± 1.7 | 2.8 ± 0.6 | 10.1 ± 3.9 | 13.3 ± 1.6 |  |
| COc1cc2c(cc1OC)[C@@H](Cc1ccc(O)cc1)N(C)CC2 [(R)-10b, (–)-armepavine] | > 150 | 4.8 ± 0.8 | > 100 | 107 ± 1.8 | > 200 |  |
| COc1ccc2cc1Oc1ccc(cc1)C[C@H]1c3c(cc(OC)c(O)c3Oc3cc4c(cc3OC)CCN[C@@H]4C2)CCN1C [compound 3, daphnandrine] |  |  |  |  |  | IC50 [9]: 43 µM |

The next lines start with results.

| IC50 [1, 10] [µM] | IC50 ([2]; Leishmania infantum) [µM] | IC50 [4, 11] [µM] | IC50 ([5]; Trypanosoma cruzi) [µM] | Compound | CC50 at 96 h [8] [µM] | further results |
| --- | --- | --- | --- | --- | --- | --- |
| > 150 | 0.7 ± 0.1 | 1.5 ± 0.2 | 7.2 ± 0.6 | COc1cc2c(cc1OC)[C@@H](Cc1ccc(Oc3cc(C[C@@H]4c5cc(OC)c(OC)cc5CCN4C)ccc3OC)cc1)N(C)CC2 [(R,R)-11, (−)-O-methyldauricine] | 11.4 ± 4.8 |  |
| > 150 | 1.1 ± 0.5 | > 100 | 5.6 ± 2.1 | COc1ccc(COc2ccc(C[C@H]3c4cc(OC)c(OC)cc4CCN3C)cc2Oc2ccc(C[C@H]3c4cc(OC)c(OC)cc4CCN3C)cc2)cc1 [(S,S)-12] | 20.8 ± 5.4 |  |

— article PMC10900488, “Synthesis and Evaluation of (Bis)benzyltetrahydroisoquinoline Alkaloids as Antiparasitic Agents” (JACS Au, 2024)
